Where no end group is shown, it is not given here.
Columns and labels:
[1] = test system: L. monocytogenes; conditions: cited from earlier work
Excerpt: Table 2 Summary of the compounds used to compare with the Trc in creating robust non-covalent antimicrobial materials. | column: Minimum Inhibitory Concentration (μg/mL) / L. monocytogenes

[2] = general character summarised in Table 2; no reference given; cited from earlier work
Excerpt: Table 2 Summary of the compounds used to compare with the Trc in creating robust non-covalent antimicrobial materials. | column: Character

[3] = test system: Escherichia coli K12; test: Resazurin assay of surface activity of peptide-treated cellulose; format: cell-based; conditions: cellulose filters, 5.0 µg compound offered per 0.28 cm^2; normalised to untreated cellulose; Figure 6B, three biological and four technical repeats
Procedure: (§1) An aqueous solution of antimicrobial compound (100 µL of 50.0 µg/mL; 5% v/v acetonitrile) was incubated for two hours with the base material punch (0.28 cm^2), ensuring that 5.0 µg of compound was available for binding. Following the incubation, the antimicrobial compound solution was removed, and the samples washed twice with 100 µL sterile analytical quality water and dried in a 40 °C oven for 2 h. Treatment conditions were chosen to imitate large scale treatment/creation of packaging materials, such as aqueous solutions, followed by a drying step.
The antimicrobial activity of the Trc-containing materials and films were determined by a developed resazurin assay. Listeria monocytogenes B73 was streaked out from freezer stocks onto BHI agar plates (Brain Heart Infusion; 1.5% m/v agar) and incubated for 48 h at 37 °C until colonies were viable. Escherichia coli K12 was streaked out from freezer stocks onto LB plates (1% m/v NaCl, 1% m/v tryptone, 0.5% m/v yeast extract, 1.5% m/v agar in water) and incubated at 37 °C for 24 h. Starter cultures were prepared, by inoculating 1 mL medium with 3–5 colonies and growing the cells overnight at 37 °C at an angle, shaking at 150 RPM. […] This culture was then pipetted (10 µL) onto the treated and untreated materials in a 96-well assay plate and incubated for one hour at 37 °C. Following the incubation, 90 µL PBS (phosphate buffered saline; 0.8% m/v NaCl, 0.04% m/v KCl, 0.144% m/v Na2HPO4, 0.02% m/v KH2PO4; pH 7.4), and 10 µL resazurin dye (0.3 mg/mL in PBS) was added, followed by a further incubation at 37 °C. The conversion of the resazurin was measured at Ex530 and Em590 after 30 min for L. monocytogenes and 90 min for E. coli using the Tecan Spark 10 M Multimode Microplate Reader and controlled by the Spark Control^TM software, both provided by Tecan Group Ltd. (Mennedorf, Switzerland). […] The activity of the material was determined in terms of percentage inhibition by using the acquired fluorescence readings (F), with the following Equation: (1) %Inhibition of Target organism=100−(F of well−F of average blank)×100/(F of growth control−F of average blank).

[4] = test system: E. coli; conditions: cited from earlier work
Excerpt: Table 2 Summary of the compounds used to compare with the Trc in creating robust non-covalent antimicrobial materials. | column: Minimum Inhibitory Concentration (μg/mL) / E. coli

[5] = test system: Listeria monocytogenes B73; test: Resazurin assay of surface activity of peptide-treated materials; format: cell-based; conditions: cellulose filters, 5.0 µg compound offered per 0.28 cm^2; normalised to untreated cellulose; Figure 6A, three biological and four technical repeats
Procedure: as §1
The antimicrobial activity of the Trc-containing materials and films were determined by a developed resazurin assay. […] The conversion of the resazurin was measured at Ex530 and Em590 after 30 min for L. monocytogenes and 90 min for E. coli using the Tecan Spark 10 M Multimode Microplate Reader and controlled by the Spark Control^TM software, both provided by Tecan Group Ltd. (Mennedorf, Switzerland). […] The activity of the material was determined in terms of percentage inhibition by using the acquired fluorescence readings (F), with the following Equation: (1) %Inhibition of Target organism=100−(F of well−F of average blank)×100/(F of growth control−F of average blank).

Molecule	Minimum Inhibitory Concentration L. monocytogenes [1]	Haemolytic character (Character) [2]	Solubility (Character) [2]	% Inhibition of E. coli by peptide-treated cellulose [3]	Minimum Inhibitory Concentration E. coli [4]	% Inhibition of L. monocytogenes by peptide-treated cellulose [5] [%]
CNC(C)C1CCC(N)C(OC2C(N)CC(N)C(OC3OCC(C)(O)C(NC)C3O)C2O)O1 (stereo not drawn) [Gentamicin]	0.5–4.0 [91, 92] μg/mL	–	–	–	–	–
Leucocin A (KYYGNGVHCTKSGCSVNWGEAFSAGVHRLANGGNGFW; ends and bridges not checked; cysteine pairing not given here; UniProt P34034 25-61, looked up) [37-mer cationic, amphipathic disulphide-bonded bacteriocin from Leuconostoc gelidum UAL187]	0.98–1.98 [87] μg/mL	non-haemolytic	water-soluble	low levels of inhibition	–	–
Magainin 2	–	–	–	“negative” inhibition	10–50 [85] μg/mL	–
Melittin	0.315 ± 0.008 [88] μg/mL	haemolytic	water-soluble	low levels of inhibition	15–42.5 [89, 90] μg/mL	–
PGLa	–	–	–	“negative” inhibition	10–50 [86] μg/mL	–
gramicidin S [GS]	11 ± 0.20 [34] μg/mL	–	–	full inhibition	3–12.5 [84] μg/mL	100
